Assay results reported in US12691107B2, “Methods for the treatment and prevention of lung infections caused by gram-positive bacteria, fungus, or virus by administration of tafenoquine” (priority 2020, dated 2026).
≈ marks a conversion by molar mass, not a printed value. Where two headings read alike, the source gives them in different places.

Experiments:
Assay type in all cases: cell-based
[1] = test system: Rhizopus arrhizus; test: Antifungal MIC (RPMI-1640 microdilution)
[2] = test system: Sporothrix sp.; test: Antifungal MIC (RPMI-1640 microdilution)
[3] = test system: Saksenaea sp.; test: Antifungal MIC (RPMI-1640 microdilution)
[4] = test system: P. variotii; test: Antifungal MIC (RPMI-1640 microdilution); conditions: Paecilomyces variotii, read-out: MIC 100% inhibition
[5] = test system: Apophysomyces sp.; test: Antifungal MIC (RPMI-1640 microdilution)
[6] = test system: Aspergillus flavus; test: Antifungal MIC (RPMI-1640 microdilution)
[7] = test system: Aspergillus fumigatus; test: Antifungal MIC (RPMI-1640 microdilution)
[8] = test system: Fusarium sp.; test: Antifungal MIC (RPMI-1640 microdilution)
[9] = test system: Curvularia sp.; test: Antifungal MIC (RPMI-1640 microdilution); conditions: read-out: MIC 100% inhibition
[10] = test system: Exserohilum sp.; test: Antifungal MIC (RPMI-1640 microdilution); conditions: read-out: MIC 100% inhibition
[11] = test system: Altenaria sp.; test: Antifungal MIC (RPMI-1640 microdilution); conditions: read-out: MIC 100% inhibition
[12] = test system: M. tuberculosis [ATCC #27294]; test: MIC against M. tuberculosis in 7H9 media; conditions: Mycobacterium tuberculosis, read-out: MIC
[13] = test system: Streptococcus pneumoniae; test: Antibacterial MIC (broth microdilution); conditions: Streptococcus pneumoniae, CA-MHB with 3% LHB
[14] = test system: Staphylococcus aureus; test: Antibacterial MIC (broth microdilution)

CC[C@@H]([C@H](C)O)n1ncn(-c2ccc(N3CCN(c4ccc(OC[C@@H]5CO[C@@](Cn6cncn6)(c6ccc(F)cc6F)C5)cc4)CC3)cc2)c1=O [Posaconazole]
MIC ([1]; read-out: MIC 100% inhibition, isolate 99-880): 1 µg/mL (≈ 1.43 µM) | MIC ([1]; read-out: MIC 100% inhibition, isolate 99-892): 0.25 µg/mL (≈ 0.357 µM) | MIC ([1]; read-out: MIC 100% inhibition, isolate RAI): 0.125 µg/mL (≈ 0.178 µM) | MIC ([2]; read-out: MIC 100% inhibition, isolate Sporo1): 0.06 µg/mL (≈ 0.0856 µM) | MIC ([2]; read-out: MIC 100% inhibition, isolate Sporo2): 1 µg/mL (≈ 1.43 µM) | MIC ([2]; read-out: MIC 100% inhibition, isolate Sporo3): 0.06 µg/mL (≈ 0.0856 µM) | MIC ([3]; read-out: MIC 100% inhibition, isolate Sak1): ≤ 0.03 µg/mL | MIC ([3]; read-out: MIC 100% inhibition, isolate Sak2): 0.06 µg/mL (≈ 0.0856 µM) | MIC ([3]; read-out: MIC 100% inhibition, isolate Sak3): ≤ 0.03 µg/mL | MIC ([4]; isolate MYA-3630): ≤ 0.03 µg/mL | MIC ([5]; read-out: MIC 100% inhibition, isolate Apo1): 0.06 µg/mL (≈ 0.0856 µM) | MIC ([5]; read-out: MIC 100% inhibition, isolate Apo2): ≤ 0.03 µg/mL | MIC ([5]; read-out: MIC 100% inhibition, isolate Apo3): 0.5 µg/mL (≈ 0.713 µM)

C[C@@H](c1ncncc1F)[C@](O)(Cn1cncn1)c1ccc(F)cc1F [Voriconazole]
MIC ([6]; ATCC204304, read-out: MIC 100% inhibition, isolate ATCC 204304): 1 µg/mL (≈ 2.86 µM) | MIC ([6]; read-out: MIC 100% inhibition, isolate Aflav2): 2 µg/mL (≈ 5.73 µM) | MIC ([6]; read-out: MIC 100% inhibition, isolate Aflav3): 1 µg/mL (≈ 2.86 µM) | MIC ([7]; read-out: MIC 100% inhibition, isolate AF293): 1 µg/mL (≈ 2.86 µM) | MIC ([7]; read-out: MIC 100% inhibition, isolate D115-106): > 16 µg/mL | MIC ([7]; read-out: MIC 100% inhibition, isolate D115-116): 8 µg/mL (≈ 22.9 µM) | MIC ([8]; read-out: MIC 100% inhibition, isolate FO1): 4 µg/mL (≈ 11.5 µM) | MIC ([8]; read-out: MIC 100% inhibition, isolate FS2): > 16 µg/mL | MIC ([8]; read-out: MIC 100% inhibition, isolate FSI): 8 µg/mL (≈ 22.9 µM) | MIC [4]: 0.125 µg/mL (≈ 0.358 µM) | MIC [9]: 0.5 µg/mL (≈ 1.43 µM) | MIC [10]: 0.5 µg/mL (≈ 1.43 µM) | MIC [11]: 2 µg/mL (≈ 5.73 µM)

NNC(=O)c1ccncc1 [Isoniazid]
MIC ([12]; ATCC27294, 168 h, 7H9 with BSA, DPPC and cholesterol, 1 week): 0.2 µM (≈ 0.0274 µg/mL) | MIC ([12]; ATCC27294, 168 h, 7H9 with casitone and DPPC, 1 week): 0.07 µM (≈ 0.0096 µg/mL) | MIC ([12]; ATCC27294, 168 h, 7H9 with glucose and BSA, 1 week): 0.2 µM (≈ 0.0274 µg/mL) | MIC ([12]; ATCC27294, 168 h, 7H9 with glucose and casitone, 1 week): 0.1 µM (≈ 0.0137 µg/mL) | MIC ([12]; ATCC27294, 336 h, 7H9 with BSA, DPPC and cholesterol, 2 weeks): 0.3 µM (≈ 0.0411 µg/mL) | MIC ([12]; ATCC27294, 336 h, 7H9 with casitone and DPPC, 2 weeks): 0.1 µM (≈ 0.0137 µg/mL) | MIC ([12]; ATCC27294, 336 h, 7H9 with glucose and BSA, 2 weeks): 0.3 µM (≈ 0.0411 µg/mL) | MIC ([12]; ATCC27294, 336 h, 7H9 with glucose and casitone, 2 weeks): 0.15 µM (≈ 0.0206 µg/mL)

CN[C@H](CC(C)C)C(=O)N[C@H]1C(=O)N[C@@H](CC(N)=O)C(=O)N[C@H]2C(=O)N[C@H]3C(=O)N[C@H](C(=O)N[C@H](C(=O)O)c4cc(O)cc(O)c4-c4cc3ccc4O)[C@H](O)c3ccc(c(Cl)c3)Oc3cc2cc(c3O[C@@H]2O[C@H](CO)[C@@H](O)[C@H](O)[C@H]2O[C@H]2C[C@](C)(N)[C@H](O)[C@H](C)O2)Oc2ccc(cc2Cl)[C@H]1O [Vancomycin]
MIC ([13]; ATCC49619, isolate ATCC 49619): ≤ 0.125 µg/mL | MIC ([13]; isolate CO314937): ≤ 0.125 µg/mL | MIC ([13]; isolate MD77773): 0.25 µg/mL (≈ 0.173 µM) | MIC ([14]; Staphylococcus aureus): 1 µg/mL (≈ 0.69 µM) | MIC ([14]; Staphylococcus aureus, ATCC29213): 1 µg/mL (≈ 0.69 µM) | MIC ([14]; isolate 6229): 1 µg/mL (≈ 0.69 µM)
